In PubChem BioAssay (NCI):
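Following 48 hours of exposure in 96-well plates, responses at five concentrations were used to interpolate endpoints linearly. Abbreviation: GI50, concentration required for 50% inhibition of growth. Definition used: TGI = concentration required for complete inhibition of growth.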

What was measured:
Assay in all cases: inhibition of tumour cell growth, NCI panel, 48 h
[1] = test system: UACC-257 melanoma
[2] = test system: SF-539 CNS
[3] = test system: OVCAR-3 ovarian
[4] = test system: U251 CNS
[5] = test system: NCI-H226 lung
[6] = test system: NCI-H23 lung
[7] = test system: SK-MEL-28 melanoma
[8] = test system: SK-OV-3 ovarian
[9] = test system: LOX IMVI melanoma
[10] = test system: TK-10 renal

| SMILES | TGI [1] [µM] | TGI [2] [µM] | TGI [3] [µM] | TGI [4] [µM] | TGI [5] [µM] | TGI [6] [µM] | TGI [7] [µM] | TGI [8] [µM] | TGI [9] [µM] | TGI [10] [µM] | GI50 [1] [µM] | GI50 [2] [µM] | GI50 [3] [µM] | GI50 [4] [µM] | GI50 [5] [µM] | GI50 [6] [µM] | GI50 [7] [µM] | GI50 [8] [µM] | GI50 [9] [µM] | GI50 [10] [µM] |
| --- | --- | --- | --- | --- | --- | --- | --- | --- | --- | --- | --- | --- | --- | --- | --- | --- | --- | --- | --- | --- |
| CC1(C)CC[C@]2(C(=O)O)CCC3(C)C(=CCC4[C@@]5(C)CC[C@H](OC6OCC(O)C(O)C6OC6OC(CO)C(O)C(O)C6O)C(C)(C)C5CC[C@]43C)C2C1 (stereo partly drawn) | 9.21 | 4.31 | 4.39 | 3.4 | 3.38 | 4.2 | 4.39 | 4.25 | 4.18 | 4.42 | – | – | – | – | – | – | – | – | – | – |
| C#CCSc1nnnn1-c1ccc(Br)c(C)c1 | > 100 | 36.5 | 95.8 | > 100 | > 100 | 88.6 | > 100 | > 100 | > 100 | > 100 | 35.2 | 18.1 | 23.2 | 12 | 26.4 | 21.5 | 50.1 | 30 | 20.9 | 35.4 |
| CCN1CCC(O)(c2ccccc2)C(C(=O)c2ccccc2)C1 (stereo not drawn) | 46.5 | > 100 | 31.2 | > 100 | 99.2 | 97.5 | 33.4 | > 100 | > 31.6 | 47.3 | – | – | – | – | – | – | – | – | – | – |
| CN(C)c1ccc(N=C(C#N)c2nc(N)nc(N3CCOCC3)n2)cc1 | > 100 | 46.1 | > 100 | > 100 | > 100 | > 100 | 48.4 | > 100 | 53.5 | 63.6 | > 100 | 21.4 | 34.6 | 32.9 | > 100 | > 100 | 19.5 | 66.2 | 22.1 | 23 |
| O=C(/C=C/c1cccnc1)/C=C/c1cccnc1 | 20.3 | 3.62 | 2.33 | 1.78 | 15.7 | 6.7 | 4.02 | 6.78 | 2.42 | 10.4 | 7.63 | 1.75 | 1.07 | 0.547 | 5.1 | 2.33 | 1.95 | 2.74 | 1.13 | 3.11 |
| COc1cccc(C2C3=C(COC3=O)N(CCO)c3cc4c(cc32)CCC4)c1 (stereo not drawn) | > 50 | – | 0.0591 | 11.5 | > 27.8 | 4.02 | > 50 | – | > 37.1 | > 50 | 32.6 | 0.0457 | 0.018 | 0.143 | 0.274 | 0.0604 | 13.4 | 0.0663 | 0.0934 | 2.13 |
| O=C1/C(=C\c2ccccc2)CN(C(=O)c2ccccc2F)C/C1=C\c1ccccc1 | 4.79 | 4.12 | 5.35 | 3.26 | 21.5 | 4.84 | 4.05 | 5.34 | 2.17 | 5.75 | 2.15 | 2 | 2.36 | 1.68 | 5.6 | 2.13 | 2.08 | 2.4 | 0.746 | 2.33 |
| COc1ccccc1NS(=O)(=O)c1cc(C(C)(C)C)ccc1OCCOc1ccc(C(C)(C)C)cc1S(=O)(=O)Nc1ccccc1OC | > 100 | > 100 | > 100 | > 100 | > 100 | > 100 | > 100 | > 100 | > 100 | > 100 | – | – | – | – | – | – | – | – | – | – |
| COc1ccc(C=O)c(N(C)C(=O)C(C)(C)C)c1 | > 100 | > 100 | > 100 | > 100 | > 100 | > 100 | > 100 | > 100 | > 100 | > 100 | – | – | – | – | – | – | – | – | – | – |
| COc1cc2nc(-c3ccc(Cl)cc3)cc(OCCCN3CCC(O)CC3)c2cc1OC | 4.56 | 6.78 | 28.3 | 22.5 | 3.62 | 15 | 3.28 | 21.8 | 0.589 | 6.75 | 2.06 | 2.28 | 3.24 | 2.81 | 1.39 | 2.83 | 1.49 | 3.17 | 0.227 | 2.14 |
| Oc1ccc(-c2nc(-c3ccc(F)cc3)c(-c3ccncc3)[nH]2)cc1 | 63.1 | > 100 | 86.9 | > 100 | > 100 | > 100 | 84.7 | 80.3 | > 100 | > 100 | 13.9 | 25.7 | 15 | 25.5 | 28.3 | 36.2 | 6.05 | 5.21 | 28.6 | 7.89 |
| NC(=NCc1ccccc1)N/N=C\c1ccnc2ccccc12 | 8.63 | 29.2 | 27.2 | 36.6 | 38.6 | 31.7 | 25.1 | 29.7 | 28.5 | 32.1 | – | – | – | – | – | – | – | – | – | – |
| CC(=O)NNc1nc(C)c(C(/C=C/c2ccc3c(c2)OCO3)=N/NC(=O)c2ccncc2)s1 | > 100 | > 100 | > 100 | > 100 | > 100 | > 100 | > 100 | > 100 | > 100 | > 100 | – | – | – | – | – | – | – | – | – | – |
| COC(=O)Oc1nn(C(=O)OC)c(=O)c2ccccc12 (tested in a mixture with another compound) | > 100 | > 100 | > 100 | > 100 | > 100 | > 100 | > 100 | > 100 | > 100 | > 100 | – | – | – | – | – | – | – | – | – | – |
| CC1OC(OC2C(OC3CCC4(C)C(CCC5(C)C4CC=C4C6CC(C)(C)CCC6(CO)C(O)CC45C)C3(C)C)OC(C(=O)O)C(OC3OC(COC4OC(CO)C(O)C(O)C4O)C(O)C(O)C3O)C2O)C(O)C(O)C1O (stereo not drawn) | 26.3 | 20.5 | 24.7 | 22.1 | 16.1 | 4.67 | 9.02 | 18 | 21.6 | 28.4 | 13.2 | 8.48 | 12.7 | 10.2 | 3.35 | 1.77 | 1.96 | 6.08 | 10.7 | 16.1 |
